Results on 30 compounds are retold here after patent publication US20050065099A1, “Treatment of mitochondrial diseases” (priority 2003, published 2005).

The test system of the first assay is FRDA fibroblasts. Nature of the assay: FRDA fibroblast assay for protection from oxidative stress. The settings on record: Homo sapiens, 24 h preincubation, 1 mM BSO, compared to untreated FRDA fibroblasts, read-out: EC50 for reduction of cell death in FRDA fibroblasts. The assay is classed as cell-based. The source says:
A cellular assay using FRDA-patient derived fibroblasts (as described by Jauslin, M L et al, Human Molecular Genetics 11; 3055-3063 (2002)); is used to determine the cell protecting effect of the test compounds by analyzing survival of dermal fibroblasts taken from FRDA patients and unaffected normal donors under conditions of partial GSH depletion. Exposure of FRDA fibroblasts to BSO (L-buthionine (S,R)-sulfoximine) under conditions of restricted selenium causes depletion of cellular glutathione (GSH) and severe plasma membrane damage leading to cell death. Preincubation with the test compounds before the addition of BSO is used to determine if they can protect FRDA cells from BSO-mediated cell death.
Primary fibroblasts were derived from donors with a molecular diagnosis of FRDA and control donors with no mitochondrial disease. Lines F2, C2 and C3 were obtained from Coriell Cell Repositories (Camden, N.J., USA; catalog #'s GM04078, GM 08402 and GM08399, respectively). All cell types were diagnosed at the molecular level for intronic GAA triplet repeat length in the trataxin gene using a PCR-based method, according to methods known in the art. […] The cells were seeded in microtiter plates at a density of 4000 cells per 100 μl in growth medium consisting of 25% (v/v) M199 EBS and 64% (v/v) MEM EBS without phenol red (Bioconcept, Allschwil, Switzerland) supplemented with 10% (v/v) fetal calf serum (PAA Laboratories, Linz, Austria), 100 U/ml penicillin, 100 μg/ml streptomycin (PAA Laboratories, Linz, Austria), 10 μg/ml insulin (Sigma, Buchs, Switzerland), 10 μg/ml EGF (Sigma, Buchs, Switzerland), 10 μg/ml bFGF (PreproTech, Rocky Hill, N.J., USA) and 2 mM glutamine (Sigma, Buchs, Switzerland). The cells were incubated in the presence of the various test compounds for 24 h before addition of 1 mM BSO (L-buthionine (S,R)-sulfoximine).
Cell viability was measured after the first signs of toxicity appeared in the BSO-treated controls (typically after 16-48 h). The cells were stained for 60 min at room temperature in PBS with 1.2 μm calceinAM and 4 μm ethidium homodimer (Live/Dead assay, Molecular Probes, Eugene, Oreg., USA). Fluorescence intensity was measured with a Gemini Spectramax XS spectrofluorimeter (Molecular Devices, Sunnyvale, Calif., USA) using excitation and emission wavelengths of 485 and 525 nm, respectively.
Consider `CC(C)=CCCC(C)=CCCC(C)=CCCC1(C)CCc2cc(O)c(C)c(C)c2O1` (stereo not shown) [Gamma-tocotrienol, 2,7,8-trimethyl-2-(4,8,12-trimethyl-trideca-3,7,11-trienyl)-chroman-6-ol], for which the half-maximal effective concentration (EC50) was in the range of 0.01 to 6 µM. The same measure, in the same setting: next, `Cc1c(O)cc2c(c1C)OC(C)(CCC(=O)NC(CCC(=O)NC(CS)C(=O)NCC(=O)O)C(=O)O)CC2` (stereo not shown) [4-[1-(Carboxymethyl-carbamoyl)-2-mercapto-ethylcarbamoyl]-2-[3-(6-hydroxy-2,7,8-trimethyl-chroman-2-yl)-propionylamino]-butyric acid]: 0.01 to 6 µM; `Cc1c(O)cc2c(c1C)OC(C)(CCCC(C)CCCC(C)CCCC(C)C)CC2` (stereo not shown) [Gamma-tocopherol, 2,7,8-trimethyl-2-(4,8,12-trimethyltridecyl)-6-chromanol]: 0.01 to 6 µM.

As to `Cc1c(C)c2c(c(CSCC(NC(=O)CCC(N)C(=O)O)C(=O)NCC(=O)O)c1O)CCC(C)(CCCC(C)CCCC(C)CCCC(C)C)O2` (stereo not shown) [2-Amino-4-{1-(carboxymethyl-carbamoyl)-2-[6-hydroxy-2,7,8-trimethyl-2-(4,8,12-trimethyl-tridecyl)-chroman-5-ylmethylsulfanyl]-ethylcarbamoyl}-butyric acid], the EC50 was 0.01 to 6 µM. Regarding `CC(C)=CCCC(C)=CCCC(C)=CCCC1(C)CCc2cc(O)cc(C)c2O1` (stereo not shown) [Delta tocotrienol, 2,8-dimethyl-2-(4,8,12-trimethyl-trideca-3,7,11-trienyl)-chroman-6-ol], the 50% effective concentration (EC50) lay within 0.01 to 6 µM.

As to `Cc1c(C)c2c(c(CCC(C)C)c1O)CCC(C)(C)O2` [2,2,7,8-Tetramethyl-5-(3-methyl-butyl)-chroman-6-ol], the EC50 was 0.01 to 6 µM. With `Cc1c(O)cc2c(c1C)OC(C)(CCCC1SC(=O)NC1=O)CC2` (stereo not shown) [5-[3-(6-Hydroxy-2,7,8-trimethyl-chroman-2-yl)-propyl]-thiazolidine-2,4-dione], the EC50 fell in the range of 0.01 to 6 µM. Turning to `Cc1c(O)cc2c(c1C)OC(C)(CCCl)CC2` (stereo not shown) [2-(2-chloro-ethyl)-2,7,8-trimethyl-chroman-6-ol], the EC50 lay within 0.01 to 6 µM. On the same count and under the same terms, next, `CC(C)=CCc1c(O)c(C)c(C)c2c1CCC(C)(CCCl)O2` (stereo not shown) [2-(2-Chloro-ethyl)-2,7,8-trimethyl-5-(3-methyl-but-2-enyl)-chroman-6-ol]: 0.01 to 6 µM; `Cc1cc(O)cc2c1OC(C)(CCCC(C)CCCC(C)CCCC(C)C)CC2` (stereo not shown) [Delta tocopherol, 2,8-dimethyl-2-(4,8,12-trimethyl-tridecyl)-chroman-6-ol]: 0.01 to 6 µM.

Another assay deals with dopaminergic neuronal cell line. The assay is described as follows: High glutamate-induced oxidative stress assay (HGOS). It is filed as cell-based. The settings on record: Mus musculus; 30 mM glutamate, 16 hrs, Cell Tracker Green; read-out: EC50 for protection against HGOS cell injury and cell death. The source says: Protection against redox stress can be further evaluated in cell culture using high glutamate induced oxidative stress (HGOS) in mouse dopaminergic cell lines. The cytotoxic effect of glutamate is not due to excitotoxicity, as this cell line is devoid of inotropic glutamate receptors. Rather, the glutamate-induced toxicity of dopaminergic cells is associated with an inhibition of cystine transport which subsequently leads to depletion of intracellular glutathione (GSH) levels (Murphy T. H., et al. Neuron 2, 1547-1558, 1989), activation of neuronal 12-lipoxygenase (Li, Y. et al., Neuron 19,453-463, 1997), increased ROS production (Tan S. et al., J. Cell Biol. 141, 1423-1432, 1998) and elevated intracellular Ca^2+ (Li, Y. et al., see supra). Some molecules were measured for their ability to protect such cells against glutamate-induced stress and the assay is detailed in Examples.
This procedure was used to induce high glutamate-induced oxidative stress (HGOS) in a dopaminergic neuronal cell line. Using this assay the potency and efficacy of test articles against HGOS neuronal cell injury and cell death was established in a high throughput manner.
The cells were seeded into 96-well plates at a density of 2000 per well and left to grow for 72 hours in a 33° C. incubator with 5% CO2 in air atmosphere. The passage number of the cells for each assay experiment were no later than p11 in order to minimize experimental variation.
All compounds were dissolved in DMEM-No Glu containing 1 mM glucose, 30 mM glutamate and 1× Pen/Strep. DMEM-No Glu with 1 mM glucose and 1×P/S was used as the negative control, DMEM-No Glucose with 1 mM glucose, […] was used as a positive control and 100 μM Glutathione was added to the positive control as a standard. All of the procedures for this involving the making and dilution of compounds were performed using aseptic conditions and with minimal light.
The plates were removed from the incubator and examined under the microscope for morphological appearance and density. Using an aseptic technique and an 8-channel aspirator the media was carefully removed from the cells and replaced with 200 μl of 1×HBSS. This was done as quickly as possible to prevent the cells drying out. The plates were then placed in the humidified 37° C. incubators of the Biomek 2000 Side Loader. Four plates were washed at a time so as to minimize the time that the cells were sitting in 1×HBSS prior to addition of the compound test solution.
The Beckman Biomek workstations were used to load the compounds and controls from the mother plates onto the cell plates that were prewashed with HBSS under sterile conditions. The plates were incubated in the upper HTS incubator at 37° C. in 5% CO2 for exactly 16 hrs. The following day, using the Beckman Biomek workstations, the plates were removed from the incubator. Using Cell Tracker Addition, the compounds were removed from the plates, washed once with […] of pre-warmed 1×HBSS and then 100 μL of 5 μM Cell Tracker Green was added to each well. The plates were incubated at 37° C. for 30 min to allow the dye to enter the cell and be cleaved by the esterases. After washing the cells twice with prewarmed 1×HBSS, the plates were read with the 485 excitation; 538 emission filter pair on a Fluoroskan.
Consider `Cc1c(O)cc2c(c1C)OC(C)(CCCCl)CC2` (stereo not shown) [2-(3-Chloro-propyl)-2,7,8-trimethyl-chroman-6-ol], for which the EC50 is at most 5 µM. For the compound `Cc1c(C)c2c(c(C)c1O)CCC(C)(C(=O)N1CCNCC1)O2` (stereo not shown) [(6-Hydroxy-2,5,7,8-tetramethyl-chroman-2-yl)-piperazin-1-yl-methanone], the EC50 was at most 5 µM. On to `Cc1c(C)c2c(c(CN3CCN(Cc4ccccc4)CC3)c1O)CCC(C)(CCCC(C)CCCC(C)CCCC(C)C)O2` (stereo not shown) [5-(4-Benzyl-piperazin-1-ylmethyl)-2,7,8-trimethyl-2-(4,8,12-trimethyl-tridecyl)-chroman-6-ol], for which the EC50 was at most 5 µM. On to `Cc1c(O)cc2c(c1C)OC(C)(C)CC2` [2,2,7,8-Tetramethyl-chroman-6-ol], for which the EC50 was at most 5 µM. The same measure, in the same setting: next, `Cc1c(C)c2c(c(C)c1O)CCC(C)(C(=N)N)O2` (stereo not shown) [6-Hydroxy-2,5,7,8-tetramethyl-chroman-2-carboxamidine]: at most 5 µM. `Cc1c(C)c2c(c(C)c1O)CCC(C)(CO)O2` (stereo not shown) [2-Hydroxymethyl-2,5,7,8-tetramethyl-chroman-6-ol]: the EC50 is at most 5 µM. Regarding `Cc1c(O)c(C)c([N+](=O)[O-])c2c1CCC(C)(C)O2` [2,2,5,7-Tetramethyl-8-nitro-chroman-6-ol], the EC50 was at most 5 µM. On the same count and under the same terms, in the case of `Cc1c(C)c2c(c(CO)c1O)CCC(C)(C)O2` [5-Hydroxymethyl-2,2,7,8-tetramethyl-chroman-6-ol] it was at most 5 µM; in that of `Cc1c(O)cc2c(c1C)OC1(C)CCCC2C1` (stereo not shown) [5,6,9-Trimethyl-8-oxa-tricyclo[7.3.1.0^2,7]trideca-2,4,6-trien-4-ol], at most 5 µM.

For the compound `Cc1c(C)c2c(c(Br)c1O)CCC(C)(CCC(=O)O)O2` (stereo not shown) [3-(5-Bromo-6-hydroxy-2,7,8-trimethyl-chroman-2-yl)-propionic acid], the EC50 is at most 5 µM. Turning to `Cc1c(C)c2c(c(C)c1O)CCC(C)(COCC(=O)Nc1cccc(C(F)(F)F)c1)O2` (stereo not shown) [2-(6-Hydroxy-2,5,7,8-tetramethyl-chroman-2-ylmethoxy)-N-(3-trifluoromethyl-phenyl)-acetamide], the EC50 is at most 5 µM. Consider `COc1cccc2c(O)cc3c(c12)OC(C)(C)CC3` [10-Methoxy-2,2-dimethyl-3,4-dihydro-2H-benzo[h]chromen-6-ol], for which the EC50 is at most 5 µM. Consider `Cc1c(O)c(C)c2c(c1C=O)OC(C)(C)CC2` [6-Hydroxy-2,2,5,7-tetramethyl-chroman-8-carbaldehyde], for which the EC50 is at most 5 µM. For the compound `Cc1c(C)c2c(c(C)c1O)C=CC(C)(C)O2` [2,2,5,7,8-Pentamethyl-2H-chromen-6-ol], the concentration for a half-maximal effect (EC50) is at most 5 µM.

As to `Cc1cc(O)c(C)c2c1OC(C)(C)CC2` [2,2,5,8-Tetramethyl-chroman-6-ol], the concentration giving a half-maximal response (EC50) was at most 5 µM. For the compound `CC(=O)N(C)CC1(C)CCc2c(C)c(O)c(C)c(C)c2O1` (stereo not shown) [N-(6-Hydroxy-2,5,7,8-tetramethyl-chroman-2-ylmethyl)-N-methyl-acetamide], the EC50 is at most 5 µM.

On to `Cc1c(C)c2c(c(C(C)O)c1O)CCC(C)(C)O2` (stereo not shown) [5-(1-Hydroxy-ethyl)-2,2,7,8-tetramethyl-chroman-6-ol], for which the concentration for a half-maximal effect (EC50) was at most 5 µM. Take `Cc1c(C)c2c(c(CCC(C)C)c1O)CCC(C)(C)O2` [2,2,7,8-Tetramethyl-5-(3-methyl-butyl)-chroman-6-ol]: the EC50 was at most 5 µM.

As to `C#CC1(C)CCc2c(C)c(O)c(C)c(C)c2O1` (stereo not shown) [2-Ethynyl-2,5,7,8-tetramethyl-chroman-6-ol], the EC50 was at most 5 µM. As for `Cc1c(C)c2c(c(CCO)c1O)CCC(C)(C)O2` [5-(2-Hydroxy-ethyl)-2,2,7,8-tetramethyl-chroman-6-ol], the half-maximal effective concentration (EC50) is at most 5 µM.

As to `Cc1c(O)cc2c(c1C)OC(C)(CCCC1SC(=O)NC1=O)CC2` (stereo not shown) [5-[3-(6-Hydroxy-2,7,8-trimethyl-chroman-2-yl)-propyl]-thiazolidine-2,4-dione], the EC50 is at most 5 µM. Still for that read-out and setting: in the case of `Cc1c(O)cc2c(c1C)OC(C)(CCCl)CC2` (stereo not shown) [2-(2-chloro-ethyl)-2,7,8-trimethyl-chroman-6-ol] it was at most 5 µM; in that of `Cc1c(C)c2c(c(CC(CO)CO)c1O)CCC(C)(C)O2` [2-(6-Hydroxy-2,2,7,8-tetramethyl-chroman-5-ylmethyl)-propane-1,3-diol], at most 5 µM; in that of `CC(C)=CCc1c(O)c(C)c(C)c2c1CCC(C)(CCCl)O2` (stereo not shown) [2-(2-Chloro-ethyl)-2,7,8-trimethyl-5-(3-methyl-but-2-enyl)-chroman-6-ol], at most 5 µM.
